For four compounds, Viscosity and pKa results are on record in US12296014B2, “External preparation comprising non-lamellar liquid crystal-forming lipid” (FARNEX INCORPORATED, priority 2018, dated 2025).

Molecules are shown by their SMILES.

A short description of data set [1]: Viscosity of the synthesized amphipathic compound. The class given is physicochemical. The conditions noted are these: at shear velocity of 92 l/s. As to the method:
Specifically, the amphipathic compound represented by the general formula (I) has a viscosity of preferably 15.0 Pa-s or less, more preferably 11.0 Pa-s or less, further preferably 6.0 Pa-s or less, by itself, as measured at 25° C. This viscosity can be measured using, for example, a viscosity and viscoelasticity measuring apparatus (Gemini II, Malvern Instruments Ltd.) at a temperature of 25° C.
^1H-NMR and viscosity of the obtained compound were measured.

The conditions of data set [2]: cited from earlier work.

The compound `CC(C)=CCC/C(C)=C/CC/C(C)=C/CCC(C)=CCCC(=O)OCC(O)CO` (racemic) [Example 6, Mono-O-(5,9,13,17-tetramethyloctadeca-4,8,12,16-tetraenoyl)glycerol] returned a Viscosity in data set [1] of 0.37 Pa·s.
Still for that read-out and setting: then `CC(=CCCC(=O)OCC(O)CO)CCCC(C)CCCC(C)C` (stereo not shown) [Example 1, Mono-O-(5,9,13-trimethyltetradec-4-enoyl)glycerol], with 0.48 Pa·s.
In the case of `CC1(C)O[C@@H]2C[C@H]3[C@@H]4CCC5=CC(=O)C=C[C@]5(C)[C@@]4(F)[C@@H](O)C[C@]3(C)[C@]2(C(=O)CO)O1` [triamcinolone acetonide], the pKa in data set [2] is given as 13.37.
In data set [1], `CC(C)=CCC/C(C)=C/CCC(C)=CCCC(=O)OCC(O)CO` (racemic) [Example 3, Mono-O-(5,9,13-trimethyltetradeca-4,8,12-trienoyl)glycerol] gave a Viscosity of 0.26 Pa·s.

The pKa is the pH at which an ionisable group is half protonated.
